Source: patent publication EP1094724B1, “USE OF A PHENOL OXIDISING ENZYME IN THE TREATMENT OF TOBACCO” (priority 1998, dated 2000)

Target: T1, Trametes villosa laccase (TvL) (Trametes villosa, UniProt Q99044)
T1 construct: purchased Novo Nordisk A/S
T1 sequence (Q99044 22-520): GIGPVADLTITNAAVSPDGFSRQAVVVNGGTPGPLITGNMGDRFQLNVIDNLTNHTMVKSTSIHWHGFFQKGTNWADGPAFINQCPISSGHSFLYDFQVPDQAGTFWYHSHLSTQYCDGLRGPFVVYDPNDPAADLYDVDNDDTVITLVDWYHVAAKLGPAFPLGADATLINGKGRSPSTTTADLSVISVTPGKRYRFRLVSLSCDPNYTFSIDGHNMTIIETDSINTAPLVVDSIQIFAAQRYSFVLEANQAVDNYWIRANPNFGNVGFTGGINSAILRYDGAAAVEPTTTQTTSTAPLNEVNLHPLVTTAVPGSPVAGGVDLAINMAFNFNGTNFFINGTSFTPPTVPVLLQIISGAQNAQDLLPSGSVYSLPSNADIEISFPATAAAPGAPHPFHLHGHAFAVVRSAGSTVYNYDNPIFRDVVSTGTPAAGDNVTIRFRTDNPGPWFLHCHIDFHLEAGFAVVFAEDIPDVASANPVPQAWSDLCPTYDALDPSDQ
Experiment: Laccase TvL treatment of tobacco extract, HPLC analysis of phenolic compounds (peak area)
Format: biochemical
Conditions: for % Remaining (peak area) after various treatment times: intensive, submerse aeration; for % Remaining (peak area) after 75 minutes / % Remaining (peak area) after 240 minutes: 1.6 µg/ml TvL, ambient temperature (approximately 20°C); for % Remaining (peak area) after 75 minutes / % Remaining (peak area) after 240 minutes / reduction in the area of the peaks (HPLC) following enzyme treatment: surface aeration; for reduction in the area of the peaks (HPLC) following enzyme treatment: tobacco extract, approximately 1.6 µg/ml TvL, pH 5.5 and 55°C
Experimental: The content of phenolic compounds is analysed by HPLC according to the procedure described below: • Liquid chromatographic system: E.g. Shimadzu SCL-6B System Controller, and two LC-6A Liquid Chromatograph (pumps) or Waters model 600 E • Injector: Shimadzu SIL 6B Autoinjector or Waters 715 Ultra Wisp. UV detector: Shimadzu SPD-6A Photodiode Array UV-VIS detector or Waters Model 481 • Software: CLASS LC10 / CLASS-MXA or Maxima 820 • Column: Supelcosil™ LC-18 25 cm x 4.6 mm (Supelco, #5-8298) or µ Bondapack C198 stainless steel column, 30 cm x 4 mm i.d., 10 µm particle size. • Guard column: none or Guard-Pak from Waters packed with the same material. • Temperature: Ambient • Mobile phase flow: 1.3 ml/min • Injection volume: 20µl • Wavelength: 350 nm • Eluent: Binary gradient (linear) mixture of A: KH2PO4 (28.4 g in 2000 ml de-mineralised water) and B: methanol (please see table 1 and figure 1). The eluent is filtered through a 0.45 µm filter and degassed before use.
Prior to HPLC analysis, the samples were filtered through a 0.45 µm filter or smaller, e.g. a sterile Sartorius Minisart 0.45 µm filter (#16555) or a Millipore Millex-GS 0.22 µm (#SBGS 0 25 SB) to remove the haze/precipitate normally formed during enzyme treatment. Normally, no dilution of the extract/sample was made before HPLC analysis.
For qualitative and semi-quantitative measurements, each of the standards was dissolved in 96% ethanol, and then mixed in a ratio and at a concentration which was within the range in the tobacco extract. For semi-quantification of the phenolic compounds in the tobacco extract, and as a measure of development in concentration of the various compounds contained in the extract, decrease in peak area relative to the peak area before addition of enzyme was used. As a measure of overall efficiency of the process, degree of reduction in total peak area of all peaks (not only the major ones) in the HPLC chromatogram with retention time Rt>3 min was used (named: "All peaks").
Unless otherwise indicated, the tobacco was extracted at a laboratory scale with water according to the following procedure: 1000 ml demineralised water is heated to 45°C. 30 g tobacco (approx. 25 g d.m.) is added and the mixture stirred by a magnetic bar and occasionally with a stick. After 15 minutes the tobacco residue is separated from the tobacco extract by vacuum filtration (Whatman glass micro fibre GF/F 11 cm). The filtered extract is then vacuum filtered at least once more or until it is completely clear. Yield was around 900 ml tobacco extract. […] No buffer was thus included in any of the trials. D.m. content of the extract was approximately 2.1%.
Tobacco extract (typically 50-100 ml) was poured into a glass beaker and a magnetic bar was added. No pH adjustments were made, and no buffer was added. The tobacco extract was heated to and controlled at 55°C during the entire enzyme treatment by means of a heating plate and a thermostat. Intensive submerse aeration was applied by blowing atmospheric air into the extract by means of a metal sinter (metal suction filter normally used for HPLC). The enzyme in question (TvL or PpL) was added to the desired concentration. Shortly after addition of laccase, the colour of the tobacco extract turned dark brown to black, and with time the liquor became turbid and a precipitate formed. The liquor was sampled with intervals for HPLC analysis.
Enzyme treatment: Surface aeration was used. TvL enzyme was added to the tobacco extract to a concentration of approximately 1.6 µg/ml. […] HPLC chromatograms of the tobacco extract before, during, and after enzyme treatment as well as chromatograms of the mixture of HPLC standards are shown in figure 6, 7, ,8, and 9.
Enzyme treatment: pH of the extract was adjusted with H2SO4 or NaOH to pH 4, pH 5, pH 6, or pH 7. The extract was kept at ambient temperature (approximately 20°C) during the entire enzyme treatment. Surface aeration was used. […]

[1] = 40 Min, approximately 1.6 µg/ml TvL at 55°C and pH 5.4
[2] = 40 Min, approximately 7.8µg/ml TvL at 55°C and pH 5.4
[3] = 80 Min, approximately 1.6 µg/ml TvL at 55°C and pH 5.4
[4] = 120 Min, approximately 1.6 µg/ml TvL at 55°C and pH 5.4

COc1cc2ccc(=O)oc2cc1O [S, 7-Hydroxy-6-methoxy-2H-1-benzopyran-2-one]
% Remaining (peak area) after various treatment times [1]: 82% | % Remaining (peak area) after various treatment times [2]: 3% | % Remaining (peak area) after various treatment times [3]: 30% | % Remaining (peak area) after various treatment times [4]: 12% | % Remaining (peak area) after 75 minutes (pH 4): 89% | % Remaining (peak area) after 240 minutes (pH 4): 58% | % Remaining (peak area) after 75 minutes (pH 5): 94% | % Remaining (peak area) after 240 minutes (pH 5): 12% | % Remaining (peak area) after 75 minutes (pH 6): 96% | % Remaining (peak area) after 240 minutes (pH 6): 6% | % Remaining (peak area) after 75 minutes (pH 7): 100% | % Remaining (peak area) after 240 minutes (pH 7): 112% | reduction in the area of the peaks (HPLC) following enzyme treatment: significant reduction

O=C(C=Cc1ccc(O)c(O)c1)OC1CC(O)(C(=O)O)CC(O)C1O (centres unmarked) [CA, 3-[[3-(3,4-Dihydroxyphenyl)-1-oxo-2-propenyl]oxy]1,4,5-trihydroxycyclohexanecarboxylic acid]
% Remaining (peak area) after various treatment times [1]: 23% | % Remaining (peak area) after various treatment times [2]: 0% | % Remaining (peak area) after various treatment times [3]: 0% | % Remaining (peak area) after various treatment times [4]: 0% | % Remaining (peak area) after 75 minutes (pH 4): 5% | % Remaining (peak area) after 240 minutes (pH 4): 0% | % Remaining (peak area) after 75 minutes (pH 5): 11% | % Remaining (peak area) after 240 minutes (pH 5): 0% | % Remaining (peak area) after 75 minutes (pH 6): 22% | % Remaining (peak area) after 240 minutes (pH 6): 0% | % Remaining (peak area) after 75 minutes (pH 7): 94% | % Remaining (peak area) after 240 minutes (pH 7): 85% | reduction in the area of the peaks (HPLC) following enzyme treatment: significant reduction
